Among the data in patent USRE37781E1, “Substituted cyclic carbonyls and derivatives thereof useful as retroviral protease inhibitors” (DuPont Pharmaceuticals Company, priority 1991, dated 2002) are melting point, IC90 and Ki values, retold here.

Data set [1] has as its system HIV-1 (RF) in MT-2 cells. Briefly: microbe, parasite or virus in culture. The class given is cell-based. The method, boiled down: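 HIV-1 laboratory strains (RF, MN, IIIB) grown in H9 cells in RPMI 1640 with 5% FCS; infections in MT-2 cells. Viral RNA quantified by hybridization with biotinylated gag/pol capture probes on streptavidin plates and alkaline phosphatase-conjugated reporter probes; BH10 gag-pol in vitro transcripts serve as RNA standards.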

In data set [2] the target is single-chain tethered dimer of HIV protease (Human immunodeficiency virus 1, UniProt P04585). The experiment in a line: biochemical. The class given is biochemical. The method, then: HIV Protease Inhibition Assay—HPLC Method
Active protease was prepared as described therein by extraction with 67% acetic acid, dilution 33-fold with water, dialysis against water and then against a “refolding buffer” consisting of 20 mM MES, 1 mM dithiothreitol and 10% glycerol. Protease was stored as a stock preparation at 10 uM in refolding buffer.
Substrate: Peptide of sequence: aminobenzoyl-Ala-Thr-His-Gln-Val-Tyr-Phe(NO2)-Val-Arg-Lys-Ala containing p-nitrophenylalanine, was prepared by solid phase synthesis as previously described Cheng et al., op.cit. Stock solutions of 2 mM substrate were prepared in DMSO.
Inhibitory compounds were dissolved in sufficient DMSO to make 3 mM stock solutions. All further dilutions were prepared in “assay buffer”: 1M NaCl, 50 mM MES, pH 5.5, 1 mM EDTA, 1 mM DTT, […] glycerol.
Enzyme reaction: In a 2 ml screw-cap centrifuge tube were added 50 ul protease (final concentration 0.25 nM) and 0.1 ml inhibitory compound (final concentration […]). After 15 min preincubation at room temperature, the reaction was started with the addition of 0.05 ml substrate (final concentration 5 uM). Incubation was carried out at 30 C. for 1 hr. The reaction was stopped with 1 ml 0.1M ammonium hydroxide.
HPLC measurement of product formation: The product (aminobenzoyl-Ala-Thr-His-Gln-Val-Tyr) was separated from substrate on a Pharmacia MonoQ anion exchange column. The injection volume was 0.2 ml. The mobile phases were: A (20 mM trisHCl, pH 9.0, 0.02% sodium Azide, 10% acetonitrile), B (20 mM tris HCl, pH 9.0, 0.02% sodium azide, 0.5M ammonium formate, 10% acetonitrile). The mobile phases were pumped at 1 ml/min, with a gradient from 0 to 30% B in 5 min, 100% B for 4 min to wash the column, and a re-equilibration for 4 min. The retention time of the product was 3.6 min. Detection with a Shimadzu model RF535 fluorescence monitor was at 330 nm (excitation) and 430 (emission).

Where [3] appears, read: Human immunodeficiency virus 1, MT2, HIV RNA assay, HIV-1 infected MT-2 cells, class symbols, read-out: IC90.
Setting [4] is: HIV RNA assay, HIV-1 infected MT-2 cells, class symbols.
Setting [5] is: HIV protease inhibition, class symbols, read-out: Ki.

≈ marks a conversion by molar mass, not a printed value. Where “and” joins values, the source holds several entries; their conditions need not be identical. Equal entries are not always repeated. Where two headings read alike, the source gives them in different places.

On to `CCCCN1C(=O)N(Cc2ccccc2)C(Cc2ccccc2)C(O)C(O)C1Cc1ccccc1` (centres unmarked) [Example 3V], for which the melting point (usually the temperature, or range, at which the solid turns liquid) is 89 to 91 °C. Besides, the concentration for an effect of 90% (IC90) – broadly, the concentration at which the effect reaches the 90% level – in data set [1] (setting [3]) is < 10 µg/mL. Also, the Ki – broadly, the dissociation constant of the complex between target and ligand, obtained from inhibition or displacement – in data set [2] was < 10 nM.
Turning to `O=Cc1ccc(CN2C(=O)N(Cc3ccc(C=O)cc3)C(Cc3ccccc3)C(O)C(O)C2Cc2ccccc2)cc1` (centres unmarked) [Example 5X], the melting point was in the range of 90 to 91 °C. Further, in data set [1] (setting [3]), the IC90 was < 10 µg/mL. The Ki in data set [2] was < 10 nM.
For the molecule `N#Cc1cccc(CN2C(=O)N(Cc3cccc(C#N)c3)C(Cc3ccccc3)C(O)C(O)C2Cc2ccccc2)c1` (centres unmarked) [Example 4P], the melting point was in the range of 225 to 227 °C. In addition, the IC90 in data set [1] (setting [3]) was < 10 µg/mL. Moreover, in data set [2], the Ki was < 10 nM.
Take `O=C1N(Cc2cccnc2)C(Cc2ccccc2)C(O)C(O)C(Cc2ccccc2)N1Cc1ccc2ccccc2c1` (centres unmarked) [Example 5H]: the melting point lay in the range of 94 to 96 °C. Besides, the IC90 in data set [1] (setting [3]) is < 10 µg/mL. Besides, the Ki in data set [2] was < 10 nM.
`O=C1N(Cc2cccc(CO)c2)C(Cc2ccccc2)C(O)C(O)C(Cc2ccccc2)N1Cc1cccc(CO)c1` (centres unmarked) [Example 5S] registered a melting point of 94 to 95 °C. For the same molecule, in data set [1] (setting [3]), the IC90 was < 10 µg/mL. Further, the inhibition constant Ki in data set [2] was < 10 nM.
`O=C1N(Cc2cccc([N+](=O)[O-])c2)C(Cc2ccccc2)C(O)C(O)C(Cc2ccccc2)N1Cc1cccc([N+](=O)[O-])c1` (centres unmarked) [Example 6Z] had a melting point of 248.3 °C. In data set [1] (Human immunodeficiency virus 1, MT2), the IC90 was < 10 µg/mL. The Ki in data set [2] was < 10 nM.
As to `O=C1N(Cc2cccc(OCc3ccccc3)c2)C(Cc2ccccc2)C(O)C(O)C(Cc2ccccc2)N1Cc1cccc(OCc2ccccc2)c1` (centres unmarked) [Example 5F], the melting point was 165 to 166 °C. Moreover, the Ki in data set [2] was 10 to 1000 nM.
`O=C1N(Cc2ccc(F)cc2)C(Cc2ccccc2)C(O)C(O)C(Cc2ccccc2)N1Cc1ccc2ccccc2c1` (centres unmarked) [Example 5Q] yielded a melting point of 105 to 107 °C. The 90% effect concentration (IC90) in data set [1] (setting [3]) was < 10 µg/mL. In addition, the inhibitory constant (Ki) in data set [2] was < 10 nM.
`C=CCN1C(=O)NC(Cc2ccccc2)C(O)C(O)C1Cc1ccccc1` (centres unmarked) [Example 5A] came in with a melting point of 180 to 182 °C. The Ki in data set [2] was > 1000 nM.
Turning to `NCc1cccc(CN2C(=O)N(Cc3cccc(CN)c3)C(Cc3ccccc3)C(O)C(O)C2Cc2ccccc2)c1` (centres unmarked) [Example 6ZK], in data set [1] (setting [3]), the IC90 was in the range of 10 to 100 µg/mL (≈ 17.7 to 177 µM). In data set [2], this molecule came in with a Ki of 10 to 1000 nM.
In the case of `CC(C)N1C(=O)N(Cc2ccc(O)cc2)C(Cc2ccccc2)C(O)C(O)C1Cc1ccccc1` (centres unmarked) [Example 5Y], in data set [1] (setting [4]), the IC90 entry was “+++ (+++=<10 μg/mL)”. Besides, the Ki in data set [2] (setting [5]) was < 10 nM.
In turn, `O=C1N(Cc2ccc(-c3ccccc3)cc2)C(Cc2ccccc2)C(O)C(O)C(Cc2ccccc2)N1Cc1ccc(-c2ccccc2)cc1` (centres unmarked) [Example 4R] gave a melting point of 109 to 110 °C. The Ki in data set [2] was 10 to 1000 nM.
For `COC(=O)c1cccc(CN2C(=O)N(Cc3cccc(C(=O)OC)c3)C(Cc3ccccc3)C(O)C(O)C2Cc2ccccc2)c1` (centres unmarked) [Example 5T], the IC90 in data set [1] (setting [3]) is < 10 µg/mL. Also, in data set [2], the Ki was < 10 nM.
With `O=C1N(Cc2ccccc2)C(Cc2ccccc2)C(O)C(O)C(Cc2ccccc2)N1Cc1ccc2ccccc2n1` (centres unmarked) [Example 4O], the IC90 in data set [1] (setting [3]) was < 10 µg/mL. The molecule also gave a Ki in data set [2] of 10 to 1000 nM.
`C=CCN1C(=O)N(CC2CCCC2)C(Cc2ccccc2)C(O)C(O)C1Cc1ccccc1` (centres unmarked) [Example 5B]: the IC90 entry in data set [1] (setting [4]) was “+++ (+++=<10 μg/mL)”. Further, in data set [2] (setting [5]), the Ki was < 10 nM.
For `CCCN1C(=O)N(Cc2ccc3ccccc3c2)C(Cc2ccccc2)C(O)C(O)C1Cc1ccccc1` (centres unmarked) [Example 4T], in data set [1] (setting [4]), the IC90 result is “+++ (+++=<10 μg/mL)”. Moreover, the inhibition constant Ki in data set [2] (setting [5]) was < 10 nM.
Regarding `O=C1N(Cc2ccc(F)cc2)C(Cc2ccccc2)C(O)C(O)C(Cc2ccccc2)N1CC1CC1` (centres unmarked) [Example 6V], in data set [1] (setting [4]), the IC90 entry is listed as “+++ (+++=<10 μg/mL)”. Moreover, the Ki in data set [2] (setting [5]) is < 10 nM.
As for `O=C1c2ccccc2C(O)C(O)c2ccccc21` (centres unmarked) [Example 26A, 5H-dibenzo [A,D] cyclohepten-5-one-10,11-dihydro-10, 11-diol], the melting point was 107.5 to 108 °C and 107.5 to 107.9 °C. In addition, the Ki in data set [2] was > 1000 nM.
Turning to `O=C1N(CC=Cc2ccccc2)C(Cc2ccccc2)C(O)C(O)C(Cc2ccccc2)N1CC1CC1` (centres unmarked) [Example 4I], the IC90 in data set [1] (setting [3]) is < 10 µg/mL. The Ki in data set [2] is < 10 nM.
In the case of `CCCCN1C(=O)N(CC=C(C)C)C(Cc2ccccc2)C(O)C(O)C1Cc1ccccc1` (centres unmarked) [Example 6I], the IC90 entry in data set [1] (setting [4]) is listed as “+++ (+++=<10 μg/mL)”. Also, the Ki in data set [2] (setting [5]) was < 10 nM.
Turning to `O=C1N(Cc2cccnc2)C(Cc2ccccc2)C(O)C(O)C(Cc2ccccc2)N1Cc1cccnc1` (centres unmarked) [Example 5O], in data set [1] (setting [3]), the IC90 was < 10 µg/mL. Moreover, the Ki in data set [2] was < 10 nM.
Take `O=C1N(Cc2cn(Cc3ccccc3)cn2)C(Cc2ccccc2)C(O)C(O)C(Cc2ccccc2)N1Cc1cn(Cc2ccccc2)cn1` (centres unmarked) [Example 6ZP]: the IC90 result in data set [1] (setting [4]) was “++ (++=10 to 100 μg/mL)”. The Ki in data set [2] (setting [5]) was > 1000 nM.
As to `COc1cccc(CN2C(=O)N(Cc3cccc(OC)c3)C(Cc3ccccc3)C(O)C(O)C2Cc2ccccc2)c1` (centres unmarked) [Example 6Q], the IC90 in data set [1] (setting [3]) was < 10 µg/mL. Besides, in data set [2], the Ki is < 10 nM.
As for `COc1ccc(CN2C(=O)N(Cc3ccc(OC)cc3)C(Cc3ccccc3)C(O)C(O)C2Cc2ccccc2)cc1` (centres unmarked) [Example 6M], the IC90 result in data set [1] (setting [4]) was “+++ (+++=<10 μg/mL)”. Also, the Ki in data set [2] (setting [5]) was in the range of 10 to 1000 nM.
As to `O=C1N(Cc2ccc(F)c(F)c2)C(Cc2ccccc2)C(O)C(O)C(Cc2ccccc2)N1Cc1ccc(F)c(F)c1` (centres unmarked) [Example 6S], in data set [1] (setting [3]), the IC90 is < 10 µg/mL. Also, the inhibitory constant (Ki) in data set [2] is < 10 nM.
The like results for `Nc1cccc(CN2C(=O)N(Cc3cccc(N)c3)C(Cc3ccccc3)C(O)C(O)C2Cc2ccccc2)c1` (centres unmarked) [Example 6ZI] were, in that order, < 10 µg/mL and < 10 nM.
Regarding `C=CCN1C(=O)N(Cc2ccncc2)C(Cc2ccccc2)C(O)C(O)C1Cc1ccccc1` (centres unmarked) [Example 5E], the IC90 in data set [1] (setting [3]) was < 10 µg/mL. Moreover, in data set [2], the Ki lay in the range of 10 to 1000 nM.
With `O=C1N(Cc2ccccc2F)C(Cc2ccccc2)C(O)C(O)C(Cc2ccccc2)N1Cc1ccccc1F` (centres unmarked) [Example 6P], the IC90 in data set [1] (setting [3]) is < 10 µg/mL. Moreover, the Ki in data set [2] was in the range of 10 to 1000 nM.
With `O=C1NC(Cc2ccccc2)C(O)C(O)C(Cc2ccccc2)N1Cc1ccccc1` (centres unmarked) [Example 6o], in data set [1] (setting [3]), the IC90 was < 10 µg/mL. For the same molecule, in data set [2], the Ki was < 10 nM.
Turning to `O=C1N(Cc2ccc3ccccc3c2)C(Cc2ccccc2)C(O)C(O)C(Cc2ccccc2)N1Cc1ccc2ccccc2c1` (centres unmarked) [Example 3U], in data set [1] (setting [3]), the IC90 was < 10 µg/mL. The Ki in data set [2] was < 10 nM.
Turning to `Cc1ccc(CN2C(=O)N(Cc3ccc(C)cc3)C(Cc3ccccc3)C(O)C(O)C2Cc2ccccc2)cc1` (centres unmarked) [Example 6T], the IC90 in data set [1] (setting [3]) was < 10 µg/mL. Moreover, the Ki in data set [2] is < 10 nM.
As to `O=C1N(Cc2ccc(O)cc2)C(Cc2ccccc2)C(O)C(O)C(Cc2ccccc2)N1CC1CC1` (centres unmarked) [Example 6E], the IC90 result in data set [1] (setting [4]) is listed as “+++ (+++=<10 μg/mL)”. Besides, in data set [2] (setting [5]), the Ki is < 10 nM.
As for `O=C1N(Cc2ccc(Br)cc2)C(Cc2ccccc2)C(O)C(O)C(Cc2ccccc2)N1Cc1ccc(Br)cc1` (centres unmarked) [Example 6ZG], the concentration for an effect of 90% (IC90) in data set [1] (setting [3]) was < 10 µg/mL. This molecule displayed a Ki in data set [2] of 10 to 1000 nM.
Regarding `Cc1cccc(CN2C(=O)N(Cc3cccc(C)c3)C(Cc3ccccc3)C(O)C(O)C2Cc2ccccc2)c1` (centres unmarked) [Example 6ZA], the IC90 in data set [1] (setting [3]) is < 10 µg/mL. For the same molecule, the Ki in data set [2] is < 10 nM.
Turning to `O=C1N(Cc2ccccc2)C(Cc2ccccc2)C(O)C(O)C(Cc2ccccc2)N1Cc1ccncc1` (centres unmarked) [Example 4B], the IC90 in data set [1] (setting [3]) is < 10 µg/mL. In addition, the Ki in data set [2] is < 10 nM.
